# Data: patent publication US12221425B2, “Process for the preparation of CIC-1 chloride channel inhibitors” (NMD PHARMA A/S, priority 2019, dated 2025)
# Biological target: T1, human CIC-1 channels (Homo sapiens, UniProt P35523)
# T1 construct: host or cells: CHO (Chinese hamster ovary) cells constitutively expressing human ClC-1
# Experiment: Automated whole cell patch clamp (Qpatch 16) on CHO cells expressing human CIC-1, compound added intracellularly
# Format: cell-based
# Settings: compound in intracellular solution vs vehicle control patches, positive shift reflects CIC-1 inhibition
# Method: The investigatory goal of these experiments was to evaluate how compounds affect the open probability and current amplitude of human CIC-1 channels expressed in CHO cells. Experiments were performed using an automated patch clamp system that allowed high throughput testing of whole cell patches together with both intracellular and extracellular addition of compound.
# Automated whole cell patch clamp experiments were performed with the Qpatch 16 system (Sophion Bioscience, Ballerup, Denmark) at room temperature. Data acquisition and analysis were performed in the Qassay software (ver. 5.6, Odense).
# To evoke CIC-1 currents in whole cell patches, the membrane potential was initially stepped from a holding potential of −30 mV to +60 mV for 100 ms and then to various test voltages (sweeps) ranging from +120 mV to −140 mV in steps of 20 mV for 300 ms. To obtain tail currents, the membrane potential was stepped to −100 mV after each test voltage for 300 ms and then relaxed to −30 mV for 2 sec between sweeps (FIG. 1). I/V relationships for whole cell instant and steady state current amplitudes were obtained by plotting average current densities at the beginning and at the end of the 300 ms step against the membrane potential (FIG. 2).
# In order to determine the relative overall open probability (P0), the instantaneous tail currents were normalized to the maximal tail current obtained following the most positive voltage step and plotted against the test voltage. Plots of normalized tail currents from each whole cell patch were then fitted to a Boltzmann function allowing determination of half activation voltages (V1/2, FIG. 3).
# For automated patch clamp experiments extracellular solutions contained: 2 mM CaCl2, 1 mM MgCl2, 10 mM HEPES, 4 mM KCl, 145 mM NaCl, 10 mM Glucose, pH adjusted to 7.4 with NaOH (2 M). Osmolality adjusted to ˜320 using sucrose.
# Intracellular solutions contained: 80 mM CsF, 60 mM CsCl, 5/1 mM KOH/EGTA, 10 mM HEPES, 10 mM NaCl, pH adjusted to 7.2 with NaOH (2 M). Osmolality adjusted to ˜320 mOsm using sucrose.
# Cells used in patch clamp experiments were Chinese hamster ovary cells (CHO) constitutively expressing human CIC-1 channels. The amino acid sequence encoded by the cDNA used to create this cell line was identical to the translated sequence for GenBank accession number NM_000083.2. Cells were produced by Charles River (Catalogue CT6175, Cleveland OH, USA) in a cryopreserved format. Experiments were performed on the cells directly after thawing (3×10^6 cells used in each experiment).
# To evaluate the compound effect on CIC-1, when applied directly to the intracellular side of the cell membrane, the half activation voltage, V1/2, was determined from whole cell patches with compound added to the intracellular solution and then compared to V1/2 determined from control cell patches with only vehicle added to the intracellular solution. Additionally, the effect of extracellular added compound was evaluated by determine V1/2 and steady state current amplitudes before and after exchanging the extracellular solution to contain compound.
# The difference in half activation voltage of CIC-1 channels, ΔV1/2, was determined as the difference between the cell patches treated intracellularly with compound and control cells patches and is reported in Table 1 below. A positive shift in ΔV1/2 is reflecting CIC-1 channel inhibition by the tested compound. P-values of <0.05 is considered significant.
# T1 sequence (P35523 whole entry): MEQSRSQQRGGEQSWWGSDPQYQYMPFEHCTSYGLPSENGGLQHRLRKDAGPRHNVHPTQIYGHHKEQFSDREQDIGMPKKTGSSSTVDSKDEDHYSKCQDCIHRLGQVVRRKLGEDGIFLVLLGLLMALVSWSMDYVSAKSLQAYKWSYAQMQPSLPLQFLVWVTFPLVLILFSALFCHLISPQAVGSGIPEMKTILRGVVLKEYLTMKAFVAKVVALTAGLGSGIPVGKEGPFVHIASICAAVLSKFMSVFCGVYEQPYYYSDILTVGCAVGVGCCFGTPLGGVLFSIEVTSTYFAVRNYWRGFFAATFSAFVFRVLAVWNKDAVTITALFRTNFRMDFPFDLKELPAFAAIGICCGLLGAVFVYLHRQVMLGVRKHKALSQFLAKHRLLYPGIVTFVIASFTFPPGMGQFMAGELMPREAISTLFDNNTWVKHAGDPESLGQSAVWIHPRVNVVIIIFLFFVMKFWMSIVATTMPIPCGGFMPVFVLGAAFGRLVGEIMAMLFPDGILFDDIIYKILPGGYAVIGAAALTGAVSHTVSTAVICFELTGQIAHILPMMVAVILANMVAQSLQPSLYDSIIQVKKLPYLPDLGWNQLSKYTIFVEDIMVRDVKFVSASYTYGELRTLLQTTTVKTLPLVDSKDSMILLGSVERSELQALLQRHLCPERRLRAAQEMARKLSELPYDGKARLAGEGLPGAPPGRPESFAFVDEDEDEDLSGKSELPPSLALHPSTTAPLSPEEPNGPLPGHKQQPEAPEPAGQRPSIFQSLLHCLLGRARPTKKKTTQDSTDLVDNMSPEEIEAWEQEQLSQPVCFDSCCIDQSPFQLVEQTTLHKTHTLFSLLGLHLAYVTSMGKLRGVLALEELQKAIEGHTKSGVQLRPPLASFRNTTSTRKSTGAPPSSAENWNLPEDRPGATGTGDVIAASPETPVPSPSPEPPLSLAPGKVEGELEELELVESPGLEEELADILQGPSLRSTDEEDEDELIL
row,"Shift in half activation voltage, ΔV1/2",SMILES
1,11.3 mV,"O=C(O)COc1ccc(Br)cc1-c1ccon1 [2-[4-bromo-2-(1,2-oxazol-3-yl)phenoxy]acetic acid]"
2,14.1 mV,C[C@H](Oc1ccc(Br)cc1-c1ccon1)C(=O)O [(2S)-2-(4-bromo-2-(isoxazol-3-yl)phenoxy)propanoic acid]
3,7.2 mV,"CC[C@H](Oc1ccc(Br)cc1-c1ccon1)C(=O)O [(2S)-2-[4-bromo-2-(1,2-oxazol-3-yl)phenoxy]butanoic acid]"
4,8.1 mV,"C[C@H](Oc1ccc(Cl)cc1-c1ccon1)C(=O)O [(2S)-2-[4-chloro-2-(1,2-oxazol-3-yl)phenoxy]propanoic acid]"
5,17.7 mV,"C[C@H](Oc1cc(F)c(Br)cc1-c1ccon1)C(=O)O [(2S)-2-[4-bromo-5-fluoro-2-(1,2-oxazol-3-yl)phenoxy]propanoic acid]"
